Results from publication PMC7956476, “Quinoline Functionalized Schiff Base Silver (I) Complexes: Interactions with Biomolecules and In Vitro Cytotoxicity, Antioxidant and Antimicrobial Activities” (Molecules, 2021).

Legend:
[1] = Ferric reducing antioxidant power (FRAP) assay; type: biochemical; details: done in triplicate
[2] = target: bovine serum albumin (BSA) (Bos taurus, UniProt P02769); assay: Albumin binding by absorption spectroscopy titration
[3] = tested on: calf thymus DNA (CT-DNA); assay: CT-DNA electronic absorption titration (Wolfe–Shimer); type: binding; details: intrinsic binding constant, absorption titration, PBS pH 7.2
[4] = tested on: Escherichia coli ATCC 25922; assay: Minimum inhibitory concentration (MIC), spotting on Müeller–Hinton agar; type: cell-based; details: Gram − Ve; E. coli; 37 °C, 18 h
[5] = tested on: Salmonella typhimurium ATCC 14026; assay: as above; type: cell-based; details: Gram − Ve; S. typhi; 37 °C, 18 h
[6] = tested on: Staphylococcus aureus ATCC 25923; assay: as above; type: cell-based; details: Gram + Ve; S. aureus; 37 °C, 18 h
[7] = tested on: Staphylococcus aureus ATCC 700699 (methicillin-resistant); assay: as above; type: cell-based; details: Gram + Ve; methicillin-resistant S. aureus; 37 °C, 18 h

Sequence of bovine serum albumin (BSA) (P02769 25-607): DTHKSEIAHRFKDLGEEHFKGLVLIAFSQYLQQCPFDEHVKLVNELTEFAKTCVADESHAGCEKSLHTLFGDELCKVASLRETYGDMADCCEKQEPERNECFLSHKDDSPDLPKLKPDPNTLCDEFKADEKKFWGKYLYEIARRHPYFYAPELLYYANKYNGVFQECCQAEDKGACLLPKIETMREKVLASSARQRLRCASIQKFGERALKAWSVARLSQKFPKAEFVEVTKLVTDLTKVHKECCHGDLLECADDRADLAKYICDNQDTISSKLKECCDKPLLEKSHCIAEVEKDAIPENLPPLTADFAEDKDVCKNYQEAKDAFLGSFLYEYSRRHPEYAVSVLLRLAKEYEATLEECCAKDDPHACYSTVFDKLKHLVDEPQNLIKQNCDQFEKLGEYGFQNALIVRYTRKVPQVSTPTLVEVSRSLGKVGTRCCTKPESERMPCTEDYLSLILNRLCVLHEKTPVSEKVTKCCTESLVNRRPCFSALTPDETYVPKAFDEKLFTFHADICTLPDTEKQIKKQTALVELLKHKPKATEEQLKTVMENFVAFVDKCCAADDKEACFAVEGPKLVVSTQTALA

## [Ag+].[O-][Cl+3]([O-])([O-])[O-].c1ccc2nc(-c3nc4ccccc4s3)ccc2c1.c1ccc2nc(-c3nc4ccccc4s3)ccc2c1 [Complex Q7, [Ag(L2)2]ClO4]
[1]
  Antioxidant (IC50 mg/mL) FRAP: 1.13 ± 0.044 mg/mL
[2]
  Protein-Complex Kb (M^−1) × 10^4: 9.38 (M^−1) × 10^4
[3]
  CT-DNA-Cmp. Kb (M^−1) × 10^5: 15.0 (M^−1) × 10^5
[4]
  Minimum inhibitory concentration, EC: 25 µg/mL
[5]
  Minimum inhibitory concentration, ST: 50 µg/mL
[6]
  Minimum inhibitory concentration, SA: 1.6 µg/mL
[7]
  Minimum inhibitory concentration, MRSA: 50 µg/mL

## Cc1ccc(N=Cc2ccc3ccccc3n2)cc1.Cc1ccc(N=Cc2ccc3ccccc3n2)cc1.[Ag+].[O-][Cl+3]([O-])([O-])[O-] [Complex Q9, [Ag(L4)2]ClO4]
[1]
  Antioxidant (IC50 mg/mL) FRAP: 1.62 ± 0.078 mg/mL
[2]
  Protein-Complex Kb (M^−1) × 10^4: 5.43 (M^−1) × 10^4
[3]
  CT-DNA-Cmp. Kb (M^−1) × 10^5: 5.00 (M^−1) × 10^5
[4]
  Minimum inhibitory concentration, EC: 12.5 µg/mL
[5]
  Minimum inhibitory concentration, ST: 50 µg/mL
[6]
  Minimum inhibitory concentration, SA: 50 µg/mL
[7]
  Minimum inhibitory concentration, MRSA: 1000 µg/mL
